IC50 and EC50 data for two compounds are collected here from paper PMC7582544, “Bioactive Ent-Kaurane Diterpenes Oridonin and Irudonin Prevent Cancer Cells Migration by Interacting with the Actin Cytoskeleton Controller Ezrin” (International Journal of Molecular Sciences, 2020).

Where two headings read alike, the source gives them in different places.

One assay relates to MKN28. In words: cells. Also noted: species or system C2C12, A375; PrestoBlue cell proliferation/viability assay, absorbance 570 nm, 24 h. To be noted: Homo sapiens, MKN-28, 24 h.
The next assay relates to C2C12. Briefly: cells. On the set-up: species or system MKN28, A375; PrestoBlue cell proliferation/viability assay, absorbance 570 nm, 24 h. To be noted: Mus musculus, 24 h, non-cancer myoblasts. On the procedure: Cell proliferation rate was evaluated measuring mitochondrial metabolic activity through the use of PrestoBlueTM (PB) (Cat. N. A13262, Invitrogen), employed according to the manufacturer’s protocol. Cells were plated onto 96-well plates (8000 cells/well), treated with increasing concentrations (10–60 μM) of Ori or Iru for 24 h and then incubated with PB reagent at 10% final concentration for 1 h. The absorbance was monitored at 570 nm with a reference wavelength set a 600 nm and using a microplate reader (Multiskan Go, Thermo Scientific, Waltham, MA, USA). Cell viability was expressed as a percentage relative to the un-treated cells cultured in DMEM with 0.1% DMSO and set to 100%. The dose compounds reducing cell number by 50% (IC50 values) were calculated using the respective dose–response curves according to the manufacturer’s protocol. IC50 values were used for the subsequent proteomic experiments. Instead, the non-toxic concentration of 10 μM was used for the functional assays. […] To that aim, we first evaluated the cytotoxic potential of both diterpenes on the C2C12 cells; therefore, we exposed for 24 h C2C12 myoblasts to increasing concentrations (10–60 μM) of Ori or of Iru, and, subsequently, we performed cell proliferation assay (Figure 1).

Another assay concerns A375. Briefly: cells. Also noted: species or system C2C12, MKN28; PrestoBlue cell proliferation/viability assay, absorbance 570 nm, 24 h. The following applies: Homo sapiens, A-375, 24 h.
The target of assay [1] is T1, Ezrin (Homo sapiens, UniProt P15311).
T1 construct: gene EZR
T1 sequence (P15311 whole entry): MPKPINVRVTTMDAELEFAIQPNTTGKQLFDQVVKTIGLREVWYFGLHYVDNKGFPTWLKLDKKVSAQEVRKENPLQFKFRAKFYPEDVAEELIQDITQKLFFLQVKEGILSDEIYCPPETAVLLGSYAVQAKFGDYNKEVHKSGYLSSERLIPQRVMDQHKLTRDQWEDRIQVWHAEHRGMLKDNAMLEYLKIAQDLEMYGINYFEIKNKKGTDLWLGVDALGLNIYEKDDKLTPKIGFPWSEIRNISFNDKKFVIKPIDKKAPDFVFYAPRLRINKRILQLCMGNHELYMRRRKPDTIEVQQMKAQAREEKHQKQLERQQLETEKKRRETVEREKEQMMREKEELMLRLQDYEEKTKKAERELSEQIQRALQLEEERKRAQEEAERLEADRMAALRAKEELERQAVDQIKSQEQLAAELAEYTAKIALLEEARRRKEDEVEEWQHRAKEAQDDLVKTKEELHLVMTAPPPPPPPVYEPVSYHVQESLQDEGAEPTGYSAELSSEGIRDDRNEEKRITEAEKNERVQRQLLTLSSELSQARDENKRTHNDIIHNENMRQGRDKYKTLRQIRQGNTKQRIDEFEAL
In words: CETSA dose response at […] °C in MKN28 cells (EC50 […] in A375), Tm shift […] to […] °C; DARTS with MS and Western blot. The class given is cell-based. For orientation: In western blotting, separated proteins are transferred to a membrane and probed.

Assay [2] concerns the target T1, Ezrin. Briefly: CETSA dose response at […] °C in A375 cells (EC50 […] in MKN28), Tm shift […] to […] °C; DARTS with MS and Western blot. Format: cell-based.

Turning to `C=C1C(=O)[C@@]23C(CC[C@@H]1[C@H]2O)[C@]12CCCC(C)(C)C1[C@H](O)[C@@]3(O)O[C@H]2O` (some centres unmarked) [Iru], the figures for the IC50 in the assay with MKN28 (read-out: Iru IC50), with C2C12 (read-out: Iru IC50) and with A375 (read-out: Iru IC50) were 25 µM, 50 µM and 35 µM, respectively. The EC50 (as a rule, the midpoint of the concentration-response curve) on Ezrin [1] came out at 13 µM.
`C=C1C(=O)[C@]23[C@H](O)[C@H]1CC[C@H]2[C@@]12CO[C@]3(O)[C@@H](O)[C@@H]1C(C)(C)CC[C@@H]2O` [Ori, (1S,2S,5S,8R,9S,10S,11R,15S,18R)-9,10,15,18-tetrahydroxy-12,12-dimethyl-6-methylidene-17-oxapentacyclo (7.6.2.15,8.01,11.02,8) octadecan-7-one]: the EC50 at Ezrin [2] stood at 19 µM. Also, the IC50 – broadly, the concentration needed to halve the response being measured – with MKN28 (read-out: Ori IC50) was determined as 20 µM; with C2C12 (read-out: Ori IC50), 30 µM; in the assay with A375 (read-out: Ori IC50), 25 µM.
